Experimental data as given in patent US9723843B2, “Family of silver (I) periodate compounds having broad microbial properties” (Innovotech, Inc., priority 2011, dated 2017).
Read-outs that look alike come from different tables or passages of the source.

Key:
[1] = Description: The purpose of this study was to develop a basic understanding of the solubility (and stability) of Ag5IO6 in pure water and 0.9% (physiological saline), following OECD Method (105)—flask.
• 1. About 0.1 g Ag5IO6 was weighed into 6 100 mL volumetric flasks. • 2. The flasks were filled to volume with ddH2O or 0.9% saline. • 3. The vessels were tightly stoppered and then agitated using a shaker in an incubator at 30° C. for approximately 24 hours. • 4. After 24 hours, two of the vessels (one per solvent) were equilibrated for 24 h at the test temperature (20° C., using a water bath) with occasional shaking. • 5. Pictures were obtained of the solutions and solid present. • 6. The contents of the vessels were then centrifuged at the test temperature (20° C.). • 7. The concentration of the test substance in the clear aqueous phase was determined by atomic absorption spectroscopy. • 8. The pH of the solution was measured using a pH meter. • 9. Triplicate samples of the solution were analyzed by UV-Vis spectroscopy. • 10. A sample of the solid material was collected by vacuum filtration, allowed to dry on the filter for 15 minutes, then transferred to a watch glass and placed in the fume hood to dry overnight. The sample was then packaged in a glass vial covered in aluminum foil and submitted for XRD analysis. • 11. The procedures of steps 4-10 were repeated for the second and third flask, after an initial equilibration at 30° C. for two and three days, respectively. Results

[2] = room temperature
Description: The purpose of this study was to determine whether or not Ag5IO6 interacts with methanol, tetrahydrofuran, acetone, and acetonitrile.
• i. […] of Ag5IO6 was placed in a vial, 2 mL of the solvent was added, and the vial was placed in a TAM III for an isothermal run at room temperature for >24 h with solvent only as the reference. The heat flow was measured. • ii. After the run was complete, the solvents were allowed to flash off and the solids collected were submitted to XRD. • iii. Samples exposed following essentially the same method for only 18 h were also submitted for XRD.

[3] = greater than 1.3 million lux hours exposure
Text: The purpose of this study was to assess the photostability of Ag5IO6 in accordance with the FDA's 1997 recommendations regarding the photostability testing of new products.
The samples were then submitted for XRD.

[4] = remark: listed apart in the source
Description: The purpose of this study was to determine the stability of Ag5IO6 at various temperatures independent of hydrolytic or photolytic effects, in order to obtain an understanding of its storage stability, and also to perform differential scanning calorimetry and thermal gravimetry.
• i. Ag5IO6 was made fresh, a sample was submitted for XRD analysis (Day 0), and then additional samples were placed at room temperature, 40° C., 54° C., and 90° C. for 14 and 28 days in amber glass vials placed in CO2 impermeable foil pouches with desiccant packs. After the allotted time period, the samples were submitted for XRD. • Samples were submitted for DSC/TGA to measure thermal stability.

[Ag+].[Ag+].[Ag+].[Ag+].[Ag+].[O-][I+]([O-])([O-])([O-])([O-])[O-] [Ag5IO6, pentasilver hexaoxoiodate]
solubility in saline ([1]; 0.9% saline, 20° C., calculated assuming that all Ag in solution is due to Ag5IO6): 0.61 ± 0.05 µg/mL
solubility in ddH2O ([1]; ddH2O, 20° C., calculated assuming that all Ag in solution is due to Ag5IO6): 24.41 ± 0.87 µg/mL
solid material converted to Ag metal (XRD) ([1]; in ddH2O): 0.1%
solid material remained as Ag5IO6 (XRD) ([1]; in ddH2O): approximately 99.9%
solid material converted to AgCl (XRD) ([1]; in saline, solid collected at the end of the experiment): approximately 25%
pH in saline ([1]; solution over Ag5IO6 in 0.9% saline): 10
pH in ddH2O ([1]; solution over Ag5IO6 in ddH2O): 8
onset of significant reaction ([2]; THF): ~56 h
onset of significant reaction ([2]; acetonitrile (slower onset)): ~56 h
time blended with solvents without substantial reaction ([2]; all solvents (methanol, tetrahydrofuran, acetone, acetonitrile)): < 18 h
onset of significant reaction ([2]; methanol): ~33 h
composition after light exposure (XRD) [3]: 100 % Ag5IO6
composition after storage (XRD) ([4]; 90° C., 14 and 28 days): 100 % Ag5IO6
grain size ([4]; 90° C., Day 14): 62 Å
grain size ([4]; 90° C., Day 28): 94 Å
grain size ([4]; Day 0): 14 Å
temperature up to which stable ([4]; powder): > 400 °C
time stable at 90° C. ([4]; powder, 90° C.): > 28 days
temperature up to which stable ([4]; powder, listed as Ag5IO6 powder): up to 440 °C
shelf life at room temperature ([4]; suggested by stability at 54° C. for 28 days): > 2 years
